Results reported in US20250092353A1, “COMMENSAL FUNGUS AND USES THEREOF” (YEDA RESEARCH AND DEVELOPMENT CO. LTD., priority 2022, published 2025).

Legend:
CD4+ T cells in PBMCs = assay: Antigen-reactive T cell enrichment (ARTE); format: cell-based, human; settings: peripheral blood of healthy individuals, 40 μg/ml fungal lysates
Protocol: PBMCs were freshly isolated from EDTA blood samples on the day of blood donation by density gradient centrifugation (Biocoll; Biochrom, Berlin, Germany). Antigen-reactive T cell enrichment (ARTE) was performed as follows. Briefly, 2×10e^7 PBMCs were plated in RPMI-1640 medium (GIBCO), supplemented with 5% (v/v) human AB-serum (Sigma Aldrich, Schnelldorf, Germany) at a cell density of 1×10e^7 PBMCs/2 cm^2 in cell culture plates and stimulated with 40 μg/ml fungal lysates for 7 hr in presence of 1 μg/ml CD40 and 1 μg/ml CD28 pure antibody (both Miltenyi Biotec, Bergisch Gladbach, Germany). 1 μg/ml Brefeldin A (Sigma Aldrich) was added for the last 2 hr. Cells were labeled with CD154-Biotin followed by anti-Biotin MicroBeads (CD154 MicroBead Kit; Miltenyi Biotec) and magnetically enriched by two sequential MS columns (Miltenyi Biotec). Surface staining was performed on the first column, followed by fixation, permeabilization (Inside stain Kit, Miltenyi Biotec) and intracellular staining on the second column. […]
Frequencies of antigen-specific T cells were determined based on the total cell count of CD154+ T cells after enrichment, normalized to the total number of CD4+ T cells applied on the column. […]

C. albicans = assay: Candidiasis in immunosuppressed C. albicans-colonized mice given Kazachstania-supplemented drinking water; format: in vivo
Protocol: Stably fungal-colonized mice were 5×s.c injected with 225 mg kg-1 with cortisone 21-acetate, following the scheme of injection every other day as described previously (Solis and Filler, 2012). Mice were monitored for weight loss. Following sacrifice, organs and feces were collected for histological examination, flow cytometry and fungal cultivations). If the weight dropped […], mice were sacrificed according to IACUC protocol.
For enumerating the number of recoverable C. albicans and K. weizmannii colony forming units, individual fecal pellets or each tissue from mice was sterilely dissected, weighed, and homogenized in sterile DDW. Serial dilutions on the organ homogenate were spread onto YPD media plates and the number of individual colonies enumerated after incubation at 37° C. for 24 hours.
Mice were euthanized and intestines, kidneys and tongue were excised and fixed overnight in 4% paraformaldehyde at 4° C. Paraffin embedding and sectioning was performed by the institutional histology unit. For immunohistochemistry of gut samples, slides were deparaffinized by 2 washes of Xylene followed by 100%, 96%, 70% EtOH and three washes with PBS. Slides were incubated for 30 minutes in 1% hydrogen peroxide in PBS at room temperature in the dark. After washing three times in PBS, slides were boiled for 10 minutes in Citric acid buffer pH 6.0 (10 mM citric acid and 0.05% Tween-20 in DDW), then washed with PBS three times. Next, slides were blocked in BP buffer (0.3% Triton X-100, 2% horse serum and 1% bovine serum albumin in PBS) for 1 h, then incubated overnight at 4° C. with a 1:200 dilution of the primary antibody (anti-Candida) in BP buffer. […] For histopathology of typical tongue or kidney fungal lesions in the mouse model of immunosuppression, paraffin sections were stained with periodic acid-Schiff (PAS) or H&E and slides were captured using a Panoramic SCAN II (3DHISTECH) and analyzed using CaseViewer software (3DHISTECH).

serum IgA and IgG = assay: In vitro serum antibody binding assay (sera of colonized mice); format: in vivo; settings: single-colonized animals
Protocol: Blood was collected from mice at rested at RT for 1 hour, followed by centrifugation 2,000 g 10 min. Serum supernatant was collected and froze at −80° C. until use. Cultured fungi were normalized to OD600=1 in PBS supplemented with 1% bovine serum albumin and 0.01% sodium azide (PBA solution). Cultured fungi were incubated with 20× diluted mouse serum on ice for 45 minutes, then washed twice with PBA, followed by staining with anti-mouse IgA and IgG. Samples were recorded on Cytek Aurora and analyzed in FlowJo (Treestar). Antibody binding intensity was normalized to the negative controls. Isotype control, non-stained and no-serum were used as negative controls.

Kazachstania weizmannii [K. weizmannii]
polarization of fungus-reactive T cells (CD4+ T cells in PBMCs): of the Th1 type
C. albicans in feces of colonized animals (C. albicans; Kazachstania-supplemented drinking water prior to immunosuppression): efficiently expelled C. albicans from colonized animals
weight loss and systemic yeast spread (kidney colonization) (C. albicans; immunosuppressed C. albicans-colonized animals exposed to K. weizmannii): significantly delayed the weight loss and systemic yeast spread
durability of protection (C. albicans; prolonged immunosuppressive treatment): not permanently protected
anti-fungal serum IgA and IgG titers (serum IgA and IgG): induced robust anti-fungal serum IgA and IgG titers in most animals
